From ChEMBL document CHEMBL3988442, “University of Dundee, Small-Polar-MMV Screening Library” (2021)
Where “and” joins values, the source holds several entries; their conditions need not be identical. Equal values may be shown once.

Key:
[1] = molecular target: Chromo domain-containing protein 1 (Saccharomyces cerevisiae (strain ATCC 204508 / S288c) (Baker's yeast), UniProt P32657); assay: ScCHD-1 Enzyme Inhibition Assay; format: functional
[2] = test system: Schistosoma mansoni; assay: High throughput screening of compounds against Schistosoma mansoni motility; format: functional; set-up: dose or concentration left out as unconfirmed

Sequence of Chromo domain-containing protein 1 (P32657 whole entry, the tested form may be a part): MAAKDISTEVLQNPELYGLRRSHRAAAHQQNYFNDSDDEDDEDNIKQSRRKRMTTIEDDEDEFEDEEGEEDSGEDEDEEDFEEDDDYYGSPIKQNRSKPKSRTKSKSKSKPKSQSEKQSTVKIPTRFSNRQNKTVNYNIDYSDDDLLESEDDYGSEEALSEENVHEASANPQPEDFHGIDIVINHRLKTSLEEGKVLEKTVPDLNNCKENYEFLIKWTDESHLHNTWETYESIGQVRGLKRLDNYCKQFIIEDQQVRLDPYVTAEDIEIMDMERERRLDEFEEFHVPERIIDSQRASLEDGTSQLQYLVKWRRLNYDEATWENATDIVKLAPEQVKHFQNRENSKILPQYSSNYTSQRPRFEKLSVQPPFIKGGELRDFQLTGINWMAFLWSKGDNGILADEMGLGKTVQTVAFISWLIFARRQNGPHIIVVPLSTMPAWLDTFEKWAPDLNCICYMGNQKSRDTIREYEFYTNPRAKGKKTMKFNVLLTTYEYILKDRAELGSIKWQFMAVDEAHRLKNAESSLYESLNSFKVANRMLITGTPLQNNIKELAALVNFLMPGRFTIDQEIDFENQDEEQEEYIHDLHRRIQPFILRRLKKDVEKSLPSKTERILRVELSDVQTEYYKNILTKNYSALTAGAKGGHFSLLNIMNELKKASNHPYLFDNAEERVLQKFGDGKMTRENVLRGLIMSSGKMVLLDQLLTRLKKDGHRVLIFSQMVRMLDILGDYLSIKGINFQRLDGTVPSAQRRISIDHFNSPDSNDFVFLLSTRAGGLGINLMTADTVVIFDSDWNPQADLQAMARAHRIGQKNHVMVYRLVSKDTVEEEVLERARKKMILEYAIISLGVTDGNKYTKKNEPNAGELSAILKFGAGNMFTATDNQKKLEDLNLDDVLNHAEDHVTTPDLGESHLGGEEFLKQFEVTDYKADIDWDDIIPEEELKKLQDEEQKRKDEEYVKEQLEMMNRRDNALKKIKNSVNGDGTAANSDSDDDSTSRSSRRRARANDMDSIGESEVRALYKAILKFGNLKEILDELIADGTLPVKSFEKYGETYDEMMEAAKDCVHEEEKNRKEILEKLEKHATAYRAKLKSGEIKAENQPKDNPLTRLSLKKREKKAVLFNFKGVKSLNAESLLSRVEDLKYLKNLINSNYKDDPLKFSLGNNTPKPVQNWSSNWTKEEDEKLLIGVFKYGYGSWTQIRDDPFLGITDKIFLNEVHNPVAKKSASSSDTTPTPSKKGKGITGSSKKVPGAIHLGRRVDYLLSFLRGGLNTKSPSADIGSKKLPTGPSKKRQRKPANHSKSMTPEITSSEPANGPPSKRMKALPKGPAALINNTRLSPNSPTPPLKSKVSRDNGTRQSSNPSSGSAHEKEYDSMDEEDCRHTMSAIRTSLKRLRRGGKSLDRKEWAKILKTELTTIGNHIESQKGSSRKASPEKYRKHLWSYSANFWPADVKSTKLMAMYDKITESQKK

Row | Compound | IC50 [1] | Percent Effect [2] [%]
1 | CNS(=O)(=O)c1cccc(CNC(=O)c2c(C)oc(C)c2C)c1 | > 29.5 µM | –
2 | CC(Cn1cccn1)NC(=O)N1CCN(Cc2cccs2)CC1 (stereo not given) | > 29.5 µM | –
3 | Cc1cnn(C2CN(CC(O)c3ccc(F)cc3)C2)c1 (stereo not given) | > 29.5 µM | –
4 | COCCn1ccc(NC(=O)Nc2ccc(C(N)=O)c(F)c2)n1 | > 29.5 µM | –
5 | CC(=O)N(Cc1noc(C)n1)C1CCN(Cc2ccon2)C1 (stereo not given) | > 29.5 µM | –
6 | CSc1ccccc1CN1CCCn2nc(CNC(=O)N(C)C)cc2C1 | > 29.5 µM | -17.72
7 | N#Cc1cn(CC(=O)NC2CC2)c2ccc(Br)cc2c1=O | > 29.5 µM | –
8 | Cn1ccnc1CN1CCC2(CC1)CN(CC1CC1)C(=O)CO2 | > 29.5 µM | –
9 | COc1ccccc1CN(C)C(=O)c1cc(CN2CCC(O)CC2)on1 | > 29.5 µM | -57.63
10 | O=C(Nc1cccc(CN2CCOC2=O)c1)N1CCSCC1 | > 29.5 µM | -6.059
11 | O=C(COCc1nc(-c2ccncc2)no1)N1CCCCCC1 | > 29.5 µM | –
12 | CCOc1ccc(N2CCCN=C2NC(=O)c2ccccc2C)cc1 | > 29.5 µM | –
13 | COc1ccc(C(=O)N2CCCCC2c2nc(C)cs2)nn1 (stereo not given) | 21.8 µM and > 29.5 µM | –
14 | CCc1nc(C2CCCN(C(=O)c3cn(C)nc3C)C2)no1 (stereo not given) | > 29.5 µM | –
15 | Cc1c(C(=O)NCC2CCCO2)nnn1-c1cccc2c1CCN(C)C2 (stereo not given) | > 29.5 µM | –
16 | CSCc1nc(C(C)(C)NC(=O)OC(C)(C)C)no1 | > 29.5 µM | –
17 | Cc1nc(N2CCN(C)CC2)ncc1C(=O)N1CC(C)(C)C(C)(O)C1 (stereo not given) | > 29.5 µM | –
18 | O=C(O)c1nnn(-c2ccc(OC(F)(F)F)cc2)c1-c1ccncc1 | > 29.5 µM | –

Row | Compound | IC50 [1] | Percent Effect [2] [%]
19 | CC(C)(C)n1ncc2c1NC(=O)CC2c1ccccc1 (stereo not given) | > 29.5 µM | –
20 | COc1ccc(C(=O)C2CCCN(CCCn3cccn3)C2)c(OC)c1 (stereo not given) | > 29.5 µM | –
21 | O=C(Cc1cccnc1)N1CCC(OCc2ccccc2)CC1 | > 29.5 µM | –
22 | CC(C)COCc1cncc2c1CCN(Cc1cnn(C)c1)C2 | > 29.5 µM | –
23 | Cn1ccc(NC(=O)Cc2cccc(F)c2)n1 | > 29.5 µM | –
24 | O=C(CS(=O)(=O)CC1CCCCC1)NC1CCCCNC1=O (stereo not given) | > 29.5 µM | –
25 | O=C(c1csc(Br)c1)N1CCCC(n2ccnc2)C1 (stereo not given) | > 29.5 µM | –
26 | Cc1cccc(CN2CCC3(CCCN(C(=O)c4ccsc4)C3)C2=O)n1 (stereo not given) | > 29.5 µM | –
27 | CC(C)CN1C[C@H]2CCN(c3ncccn3)CC[C@H]2S1(=O)=O | > 29.5 µM | –
28 | Cc1cccc(CN2C[C@@H]3COC[C@]3(CNC(=O)c3ccsc3)C2)n1 | > 29.5 µM | –
29 | O=C1CSC(c2ccsc2)c2sccc2N1 (stereo not given) | > 29.5 µM | –
30 | O=C1NCc2ccc(NC(=O)C3CCCN3c3nccs3)cc21 (stereo not given) | > 29.5 µM | –
31 | NC(=O)C1CCN(C(=O)c2cccc(CN3CCOCC3)c2)CC1 | > 29.5 µM | 38.13
32 | Cc1nc(CN2CCCC(CCc3c(F)cccc3F)C2)c[nH]1 (stereo not given) | > 29.5 µM | –
33 | CC(=O)NCCC(=O)NCc1cccnc1-n1cnc2ccccc21 | > 29.5 µM | –
34 | CCn1ncnc1C1CC(=O)NCc2nc3ccccn3c21 (stereo not given) | > 29.5 µM | –
35 | CNC(=O)C1CCC(NC(=O)N(C)Cc2c(C)noc2C)CC1 (stereo not given) | > 29.5 µM | –
36 | c1ncn(CC2CCCCN2Cc2csc(C3CCCC3)n2)n1 (stereo not given) | > 29.5 µM | –
